Measured values from patent US7230028B2, “Dimeric compounds and their use as anti-viral agents” (priority 2001, dated 2007).
Values after ≈ are worked out from the molar mass of the structure shown.

Key:
[1] = test system: A/Bayern/7/95 BVL006 (H1N1); experiment: Plaque reduction assay (PRA) in MDCK cells; type: cell-based, influenza A H1N1; settings: Influenza A virus, MDCK, A/Bayern/7/95 (H1N1), read-out: EC50 PRA A/Bay
Procedure: (§1) Madin Darby Canine Kidney (MDCK) cells are seeded into six well tissue culture plates and grown to confluency via standard methods. Influenza viruses are diluted in a minimal volume of phosphate buffered saline supplemented with 0.2% bovine serum albumin to yield an estimated titre of 50–100 plaque forming units (pfu) per well. After adsorption to the MDCK cells for one hour at 37° C. in a 5% CO2 atmosphere the viral inocula is aspirated and replaced with viral growth media (minimal Eagle's media supplemented with BSA, trypsin and insulin/transferrin/selenium at optimal concentrations) containing sufficient agar or agarose (generally 1–2%) to cause the media to gel at room temperature and at 37° C. in a 5% CO2 atmosphere until plaques develop (generally 2–4 days). Plaques can be visualised with a suitable stain (e.g. 0.4% crystal violet in formal saline) before counting.

A/WSN/33 BVLV09 (H1N1) = experiment: Plaque reduction assay (PRA) in MDCK cells; type: cell-based, influenza A H1N1; settings: A/WSN/33 (H1N1)
Procedure: as §1

[2] = test system: A/Victoria/3/75 BVLV017 (H3N2); experiment: Plaque reduction assay (PRA) in MDCK cells; type: cell-based; settings: Influenza A virus, H3N2, MDCK, read-out: EC50 PRA A/Vic, plaque reduction, A/Victoria/3/75 (H3N2)
[3] = test system: A/Sydney/5/97 BVLV015 (H3N2); experiment: Plaque reduction assay (PRA) in MDCK cells; type: cell-based, influenza A H3N2; settings: Influenza A virus, MDCK, A/Sydney/5/97 (H3N2), read-out: EC50 PRA A/Syd
Procedure: as §1

[4] = test system: A/New Caledonia/20/99 BVLV008 (H1N1); experiment: Plaque reduction assay (PRA) in MDCK cells; type: cell-based
[5] = test system: A/Panama/2007/99 BVLV008 (H3N2); experiment: Plaque reduction assay (PRA) in MDCK cells; type: cell-based
B/Harbin/7/95 BVLV008 = experiment: Plaque reduction assay (PRA) in MDCK cells; type: cell-based; settings: Influenza B virus, read-out: EC50 PRA B/Harb
Procedure: as §1

B/Hong Kong/5/72 BVLV012 = experiment: Plaque reduction assay (PRA) in MDCK cells; type: cell-based, influenza B; settings: Influenza B virus, MDCK, read-out: EC50 PRA B/HongK
Procedure: as §1

[6] = Rat lung retention assay (intra-tracheal dosing); type: in vivo; settings: rat, in vivo, 0.1 mg/kg
Procedure: Rodents are anaesthetised and dosed with compound of interest by the intra-tracheal route at a dose volume of 0.8 ml/kg. The rodent is then held in the vertical position until full recovery is achieved. […] Any analytical method suitable for detection of this type of compound may be used. The time at which levels of compound fall below the sensitivity of the analytical techniques identified will determine the residency time of the compound in lung tissue.
Please note that all experiments included a co-dosed internal standard, namely compound 3 of International Patent Publication No. WO 02/20514, to permit comparison. The data are expressed as a ratio with respect to this compound, the structure of which is shown below.

For `CC(=O)N[C@H]1[C@H]([C@H](O)[C@H](O)CO)OC(C(=O)O)=C[C@@H]1NC(=N)N` [Compound A, 4-guanidino-2-deoxy-2,3-dehydro-N-acetylneuraminic acid], which EC50 [1] is on record?
Its EC50 is 0.035 µg/mL (≈ 105 nM).

And the “EC50 PRA A/WSN” value (A/WSN/33 BVLV09 (H1N1))?
Its value is greater than 100 ng/mL.

And the EC50 (A/WSN/33 BVLV09 (H1N1); Influenza A virus, MDCK)?
Its EC50 is 0.056 µg/mL (≈ 169 nM).

What about the EC50 [2] of the same compound?
The EC50 was 5.5 ng/mL (≈ 16.6 nM).

And the EC50 [3]?
Its EC50 is 2.4 ng/mL (≈ 7.22 nM).

And the EC50 ([4]; Influenza A virus, H1N1, MDCK, read-out: EC50 PRA A/New, plaque reduction, A/New Caledonia/20/99 (H1N1))?
Its EC50 is 0.27 ng/mL (≈ 0.812 nM).

What about the “EC50 PRA A/New” value ([4]; plaque reduction, A/New Caledonia/20/99 (H1N1)) of the same compound?
Its value is 0.23 ng/mL (≈ 0.692 nM).

And the EC50 ([5]; Influenza A virus, H3N2, MDCK, read-out: EC50 PRA A/Pan, plaque reduction, A/Panama/2007/99 (H3N2))?
Its EC50 is 2.7 ng/mL (≈ 8.12 nM).

What about the “EC50 PRA A/Pan” value ([5]; plaque reduction, A/Panama/2007/99 (H3N2)) of the same compound?
The value was 3 ng/mL (≈ 9.03 nM).

What about the EC50 (B/Harbin/7/95 BVLV008) of the same compound?
The EC50 was 0.19 ng/mL (≈ 0.572 nM).

What about the EC50 (B/Hong Kong/5/72 BVLV012) of the same compound?
The EC50 was 0.021 µg/mL (≈ 63.2 nM).

What about the “Ratio Mean (lung) (cmpd)/PCT AU01/01128 compound 3” value ([6]; 48 h) of the same compound?
The value was 0.26.

And the “Ratio Mean (lung) (cmpd)/PCT AU01/01128 compound 3” value ([6]; 168 h)?
Its value is 0.08.
